The target of test [1] is T1, HPK1 protein (Homo sapiens, UniProt Q92918).
T1 construct: purchased Signal Chem M23-11G-10
T1 sequence (Q92918 1-346 limits assumed): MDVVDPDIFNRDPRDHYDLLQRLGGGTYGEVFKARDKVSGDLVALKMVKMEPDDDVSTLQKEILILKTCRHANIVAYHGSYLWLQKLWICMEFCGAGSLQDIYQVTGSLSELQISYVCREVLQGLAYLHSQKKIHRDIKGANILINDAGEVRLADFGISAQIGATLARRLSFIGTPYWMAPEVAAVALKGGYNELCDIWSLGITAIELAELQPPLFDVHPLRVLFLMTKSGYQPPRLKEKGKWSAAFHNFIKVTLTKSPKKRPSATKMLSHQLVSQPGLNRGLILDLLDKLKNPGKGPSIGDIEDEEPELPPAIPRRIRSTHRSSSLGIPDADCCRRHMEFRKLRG
The test can be described thus: HPK1 enzyme inhibition assay (ADP-Glo). In kind it is biochemical. Particulars: MBP substrate, ATP, ADP-Glo readout. Here is the method: The compound was dissolved in 100% DMSO at the concentration of 10 mM. The HPK1 protein was purchased from Signal Chem (M23-11G-10). 2.5 μL per well of 2×HPK1 protein was added to assay plate containing the test compound, centrifuged at 1500 rpm for 1 minute, and then incubated at 25° C. for 60 minutes. MBP protein was purchased from Signal Chem (M42-51N) and ATP was purchased from Promega (V9102). The two were added 2.5 μL per well mixture of 2×MBP (0.2 ug/ul) and ATP (20 μM), centrifuged at 1500 rpm for 1 minute, then incubated at 25° C. for 60 minutes. Then added 5 μL of ADP-Glo from Promega (V9102) to the assay plate and depleted the unconsumed ATP for 60 minutes. Then centrifuged at 1500 rpm for 1 minute and incubated at 25° C. for 60 minutes. Finally, 10 μL of the kinase assay reagent from Promega (V9102) was added to the assay plate to convert ADP to ATP, centrifuged at 1500 rpm for 1 minute, incubate at 25° C. for 40 minutes. After 40 minutes incubation, the […] was determined. Based on the results, the IC50 value of the compound was calculated.
In general terms: ADP-Glo turns the ADP formed in a reaction into a luminescent signal.

Test [2] addresses T2, HPK1 protein (Mus musculus, UniProt P70218).
T2 construct: the CD3+ T cell population was isolated from spleenocytes of mice; endogenous in cells; host or cells: primary mouse splenic CD3+ (pan) T cells
T2 sequence (P70218 1-827): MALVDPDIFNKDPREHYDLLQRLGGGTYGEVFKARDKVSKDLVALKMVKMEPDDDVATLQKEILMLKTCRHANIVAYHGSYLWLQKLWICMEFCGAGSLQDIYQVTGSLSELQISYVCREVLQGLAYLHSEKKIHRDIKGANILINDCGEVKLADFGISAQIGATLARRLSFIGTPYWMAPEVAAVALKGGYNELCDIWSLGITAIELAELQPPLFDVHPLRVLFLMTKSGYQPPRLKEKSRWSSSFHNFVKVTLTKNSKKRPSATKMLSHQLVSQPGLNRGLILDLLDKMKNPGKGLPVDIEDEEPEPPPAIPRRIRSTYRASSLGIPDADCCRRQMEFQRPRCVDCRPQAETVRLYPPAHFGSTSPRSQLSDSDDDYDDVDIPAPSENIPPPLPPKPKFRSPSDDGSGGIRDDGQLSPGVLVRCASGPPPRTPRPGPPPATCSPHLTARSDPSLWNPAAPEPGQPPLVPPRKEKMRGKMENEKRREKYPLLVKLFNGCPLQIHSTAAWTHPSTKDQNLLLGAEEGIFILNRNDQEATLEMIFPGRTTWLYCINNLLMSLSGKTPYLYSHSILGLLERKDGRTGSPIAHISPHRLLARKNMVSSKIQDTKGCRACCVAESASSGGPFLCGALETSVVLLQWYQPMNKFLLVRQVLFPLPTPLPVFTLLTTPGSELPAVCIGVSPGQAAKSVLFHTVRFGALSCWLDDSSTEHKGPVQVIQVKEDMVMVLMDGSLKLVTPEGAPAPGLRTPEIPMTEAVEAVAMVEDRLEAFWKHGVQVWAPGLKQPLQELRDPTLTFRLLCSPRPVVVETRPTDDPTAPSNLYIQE
The test can be described thus: HPK1 protein degradation in mouse pan T cell (western blot). Format: cell-based. Particulars: 18 h incubation. Here is the method:
HPK1 protein degradation in mouse pan T cell: the CD3+ T cell population was isolated from spleenocytes of mice by using Pan T cell isolation kit from Miltenyi Biotec (130-095-130) following manufacture's instruction. The isolated T cells were then incubated with a variety of concentrations of compound. After incubation for 18 h, the cells were collected and lysed. The protein concentration was determined by BCA protein assay kit from Thermo (23227). The HPK1 protein level was determined by western blots, using anti-human HPK1 polyclonal antibody from CST (4472). Proteins were loaded into each well of the pre-casting gels and subjected to electrophoretic separation by SDS-PAGE. The protein resolved by SDS-PAGE were transferred to PVDF, blocked by 5% skim milk and probed with anti-human HPK1 antibody or β-actin antibody from CST (3700S), using following standard western blotting procedure.
Background: In western blotting, separated proteins are transferred to a membrane and probed.

For orientation: IC50 means the midpoint of a concentration-inhibition curve. A word on the Dmax: it is the greatest extent of degradation seen. Low values mean a partial loss of target, high ones a fuller loss of target. For the compound `CCc1c[nH]c2ncc(-c3cccc(N4CCN(CCC(=O)N5CCN(c6ccc7c(c6)C(=O)N(C6CCC(=O)NC6=O)C7=O)CC5)CC4=O)c3)c(Cl)c12` (stereo not shown) [Example 24], the IC50 at HPK1 protein [1] lay in the range of 10 to 100 nM. The compound further displayed a Dmax at HPK1 protein [2] of 91%.
`CCc1c[nH]c2ncc(-c3cccc(N4CCN(CCCN5CCN(c6ccc7c(c6)C(=O)N(C6CCC(=O)NC6=O)C7=O)CC5)CC4=O)c3)c(Cl)c12` (stereo not shown) [Example 27]: the IC50 on HPK1 protein [1] lay within 10 to 100 nM. Also, the Dmax at HPK1 protein [2] was 95%.
In the case of `CCc1c[nH]c2ncc(-c3cccc(N4CCN(CC(=O)N5CCN(c6cc7c(cc6F)C(=O)N(C6CCC(=O)NC6=O)C7=O)CC5)CC4=O)c3)c(Cl)c12` (stereo not shown) [Example 29, 5-(4-(2-(4-(3-(4-chloro-3-ethyl-1H-pyrrolo[2,3-b]pyridin-5-yl)phenyl)-3-oxopiperazin-1-yl)acetyl)piperazin-1-yl)-2-(2,6-dioxopiperidin-3-yl)-6-fluoroisoindoline-1,3-dione], the IC50 against HPK1 protein [1] lay within 10 to 100 nM. Besides, the Dmax at HPK1 protein [2] was determined as 80%.
As to `CCc1c[nH]c2ncc(-c3cccc(N4CCN(CCOCCN5CCN(c6cc7c(cc6F)C(=O)N(C6CCC(=O)NC6=O)C7=O)CC5)CC4=O)c3)c(Cl)c12` (stereo not shown) [Example 33], the IC50 at HPK1 protein [1] lay within 10 to 100 nM. The compound also came in with a Dmax on HPK1 protein [2] of 60%.
Taken in the same sequence, the figures for `O=C1CCC(N2Cc3cc(N4CCC(OCC(=O)N5CCN(c6cccc(-c7cnc8[nH]cc(C#Cc9ccccn9)c8c7Cl)c6)C(=O)C5)CC4)ccc3C2=O)C(=O)N1` (stereo not shown) [Example 57, 3-(5-(4-(2-(4-(3-(4-chloro-3-(pyridin-2-ylethynyl)-1H-pyrrolo[2,3-b]pyridin-5-yl)phenyl)-3-oxopiperazin-1-yl)-2-oxoethoxy)piperidin-1-yl)-1-oxoisoindolin-2-yl)piperidine-2,6-dione] were 100 to 1000 nM and 0%.
Taken in the same sequence, the figures for `CCc1c[nH]c2ncc(-c3cccc(N4CCN(CCCCNc5ccc6c(c5)C(=O)N(C5CCC(=O)NC5=O)C6=O)CC4=O)c3)c(Cl)c12` (stereo not shown) [Example 59] were 10 to 100 nM and 60%.
Take `O=C1CCC(N2Cc3cc(F)c(N4CCC(CCN5CCN(c6cccc(-c7cnc8[nH]cc(C9CC9)c8c7Cl)c6)C(=O)C5)CC4)cc3C2=O)C(=O)N1` (stereo not shown) [Example 61]: the IC50 at HPK1 protein [1] fell in the range of 100 to 1000 nM. Moreover, on HPK1 protein [2], the Dmax is 50%.
Compound `O=C1CCC(N2Cc3cc(N4CCC(CCN5CCN(c6cccc(-c7cnc8[nH]cc(C9CC9)c8c7Cl)c6)C(=O)C5)CC4)c(F)cc3C2=O)C(=O)N1` (stereo not shown) [Example 62, 3-(5-(4-(2-(4-(3-(4-chloro-3-cyclopropyl-1H-pyrrolo[2,3-b]pyridin-5-yl)phenyl)-3-oxopiperazin-1-yl)ethyl)piperidin-1-yl)-6-fluoro-1-oxoisoindolin-2-yl)piperidine-2,6-dione] showed an IC50 at HPK1 protein [1] of 10 to 100 nM. At HPK1 protein [2], this compound registered a Dmax of 95%.
As for `CCc1c[nH]c2ncc(-c3cccc(N4CCN(C(=O)CCCCCOc5ccc6c(c5)C(=O)N(C5CCC(=O)NC5=O)C6)CC4=O)c3)c(Cl)c12` (stereo not shown) [Example 68, 3-(6-((6-(4-(3-(4-chloro-3-ethyl-1H-pyrrolo[2,3-b]pyridin-5-yl)phenyl)-3-oxopiperazin-1-yl)-6-oxohexyl)oxy)-1-oxoisoindolin-2-yl)piperidine-2,6-dione], the IC50 against HPK1 protein [1] was 10 to 100 nM.
In turn, `O=C1CCC(c2ccc(N3CCN(CCCN4CCN(c5cccc(-c6cnc7[nH]cc(C8CC8)c7c6Cl)c5)C(=O)C4)CC3)cc2)C(=O)N1` (stereo not shown) [Example 75, 3-(4-(4-(3-(4-(3-(4-chloro-3-cyclopropyl-1H-pyrrolo[2,3-b]pyridin-5-yl)phenyl)-3-oxopiperazin-1-yl)propyl)piperazin-1-yl)phenyl)piperidine-2,6-dione] gave an IC50 against HPK1 protein [1] not above 10 nM. The Dmax on HPK1 protein [2] turned out to be 55%.
As to `CCc1c[nH]c2ncc(-c3cccc(N4CCN(CC5CN(c6ccc7c(c6)C(=O)N(C6CCC(=O)NC6=O)C7=O)C5)CC4=O)c3)c(Cl)c12` (stereo not shown) [Example 89], the IC50 against HPK1 protein [1] is 10 to 100 nM.
Take `CCc1c[nH]c2ncc(-c3cccc(N4CCN(Cc5ccc6c(c5)C(=O)N(C5CCC(=O)NC5=O)C6=O)CC4=O)c3)c(Cl)c12` (stereo not shown) [Example 90, 5-((4-(3-(4-chloro-3-ethyl-1H-pyrrolo[2,3-b]pyridin-5-yl)phenyl)-3-oxopiperazin-1-yl)methyl)-2-(2,6-dioxopiperidin-3-yl)isoindoline-1,3-dione]: on HPK1 protein [1], the IC50 is 10 to 100 nM.
For the compound `O=C1CCC(N2C(=O)c3ccc(CN4CCC(OC(=O)N5CCN(c6cccc(-c7cnc8[nH]cc(C9CC9)c8c7Cl)c6)C(=O)C5)CC4)cc3C2=O)C(=O)N1` (stereo not shown) [Example 94, 1-((2-(2,6-dioxopiperidin-3-yl)-1,3-dioxoisoindolin-5-yl)methyl)piperidin-4-yl 4-(3-(4-chloro-3-cyclopropyl-1H-pyrrolo[2,3-b]pyridin-5-yl)phenyl)-3-oxopiperazine-1-carboxylate], the IC50 on HPK1 protein [1] was in the range of 10 to 100 nM.
On HPK1 protein [1], `O=C1CCN(c2cnc3cc(C4CCN(CCCN5CCN(c6cccc(-c7cnc8[nH]cc(C9CC9)c8c7Cl)c6)C(=O)C5)CC4)ccn23)C(=O)N1` [Example 96, 1-(7-(1-(3-(4-(3-(4-chloro-3-cyclopropyl-1H-pyrrolo[2,3-b]pyridin-5-yl)phenyl)-3-oxopiperazin-1-yl)propyl)piperidin-4-yl)imidazo[1,2-a]pyridin-3-yl)dihydro pyrimidine-2,4 (1H,3H)-dione] had an IC50 not above 10 nM.
`CCc1c[nH]c2ncc(-c3cccc(N4CCN(CCc5ccc6c(c5)C(=O)N(C5CCC(=O)NC5=O)C6=O)CC4=O)c3)c(Cl)c12` (stereo not shown) [Example 97, 5-(2-(4-(3-(4-chloro-3-ethyl-1H-pyrrolo[2,3-b]pyridin-5-yl)phenyl)-3-oxopiperazin-1-yl)ethyl)-2-(2,6-dioxopiperidin-3-yl)isoindoline-1,3-dione]: at HPK1 protein [1], the IC50 was not above 10 nM.
In turn, `O=C1CCC(N2C(=O)c3ccc(CCN4CCC(OC(=O)N5CCN(c6cccc(-c7cnc8[nH]cc(C9CC9)c8c7Cl)c6)C(=O)C5)CC4)cc3C2=O)C(=O)N1` (stereo not shown) [Example 98, 1-(2-(2-(2,6-dioxopiperidin-3-yl)-1,3-dioxoisoindolin-5-yl)ethyl)piperidin-4-yl 4-(3-(4-chloro-3-cyclopropyl-1H-pyrrolo[2,3-b]pyridin-5-yl)phenyl)-3-oxopiperazine-1-carboxylate] yielded an IC50 against HPK1 protein [1] of 10 to 100 nM.

For the origin of these results see patent US20240368159A1, “HPK1 DEGRADERS, COMPOSITIONS COMPRISING THE HPK1 DEGRADER, AND METHODS OF USING THE SAME” (BIOFRONT LTD, priority 2021, published 2024).
